Source: patent US10689383B2, “Optionally fused heterocyclyl-substituted derivatives of pyrimidine useful for the treatment of inflammatory, metabolic, oncologic and autoimmune diseases” (NUEVOLUTION A/S, priority 2014, dated 2020)

Assays:
[1] = target: T1, yeast Gal4-DNA binding domain fused to the ligand binding domain of human RORγ (Homo sapiens, UniProt P51449); test: RORγ Reporter Assay (Gal4); assay type: cell-based; details: values given as lower bounds of ranges; for Gal4 activity range @ 0.1 μM (% inhibition): RORγ Reporter Assay (Gal4) at 0.1 μM; for Gal4 activity range @ 1 μM (% inhibition): RORγ Reporter Assay (Gal4) at 1 μM
T1 construct: host or cells: HEK293t
T1 sequence (P51449 269-508 limits assumed): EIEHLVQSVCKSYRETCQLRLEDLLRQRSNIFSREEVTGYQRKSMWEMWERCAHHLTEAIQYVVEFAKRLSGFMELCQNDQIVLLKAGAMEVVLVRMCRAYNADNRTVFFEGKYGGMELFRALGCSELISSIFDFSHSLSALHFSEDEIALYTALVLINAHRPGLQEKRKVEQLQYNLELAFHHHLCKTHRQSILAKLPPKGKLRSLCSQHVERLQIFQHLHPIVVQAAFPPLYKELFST
Method in brief: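 Compound at final 1,000 or 100 nM (0.1% DMSO, triplicate) was added to the transfected HEK293t cells carrying a Gal4-UAS luciferase reporter for 24 h at 37 °C, 10% charcoal-stripped FBS. Activity reduction expressed as percent of vehicle-only luciferase signal.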

[2] = target: T2, human RORγt (Ligand Binding Domain) (Homo sapiens, UniProt P51449); test: Fluorescence Polarization (FP) Assay; details: Fluorescence Polarization (FP) Assay; values given as upper bounds of activity ranges; read-out: FP activity range
T2 construct: purchased Crelux (Planegg, Germany) batch no PC5032-1
T2 sequence (P51449 269-508 limits assumed): T1 sequence (P51449 269-508 limits assumed)
Method in brief: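 Binding to the ligand pocket followed by fluorescence polarization with a TAMRA-tagged RORγt ligand probe of 910 g/mole. Negative control wells received DMSO only.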

SMILES | Gal4 activity range @ 0.1 μM (% inhibition) [1] | Gal4 activity range @ 1 μM (% inhibition) [1] | IC50 [2]
O=S1(=O)CCOC(CNc2ncnc(N3CCC[C@@H]3c3ccc(C(F)(F)F)cc3)c2F)C1 (stereo partly drawn) [Example 202, N-[(4,4-dioxo-1,4-oxathian-2-yl)methyl]-5-fluoro-6-[(2R)-2-[4-(trifluoromethyl)phenyl]pyrrolidin-1-yl]pyrimidin-4-amine] | >0 % inhibition | >50 % inhibition | < 10 µM
Fc1c(NC[C@H]2CC[C@H](Cc3nnn[nH]3)CC2)ncnc1N1CCOC[C@@H]1c1ccc(C(F)(F)F)cc1 [Example 288, 5-fluoro-N-[[4-(1H-tetrazol-5-ylmethyl)cyclohexyl]methyl]-6-[(3S)-3-[4-(trifluoromethyl)phenyl]morpholin-4-yl]pyrimidin-4-amine] | >80 % inhibition | >80 % inhibition | < 0.5 µM
NC(=O)c1ccc(CNc2ncnc(N3CCC[C@@H]3c3ccc(C(F)(F)F)cc3)c2F)cc1 [Example 226, 4-[[[5-fluoro-6-[(2R)-2-[4-(trifluoromethyl)phenyl]pyrrolidin-1-yl]pyrimidin-4-yl]amino]methyl]benzamide] | – | >50 % inhibition | < 10 µM
COc1cccc(C2CCCN2c2ncnc(NCc3ccc(CC(N)=O)cc3)c2F)c1 (stereo not shown) [Example 304, 2-[4-[[[5-fluoro-6-[2-(3-methoxyphenyl)pyrrolidin-1-yl]pyrimidin-4-yl]amino]methyl]phenyl]acetamide] | >20 % inhibition | >80 % inhibition | < 0.5 µM
O=C(O)Cc1ccc(CNc2ncnc(N3CCC[C@@H]3c3ccc(C(F)(F)F)cc3)c2F)s1 [Example 207, 2-[5-[[[5-fluoro-6-[(2R)-2-[4-(trifluoromethyl)phenyl]pyrrolidin-1-yl]pyrimidin-4-yl]amino]methyl]-2-thienyl]acetic acid] | >20 % inhibition | >80 % inhibition | < 0.5 µM
N#CC[C@H]1CC[C@H](CNc2ncnc(N3CCOC[C@@H]3c3ccc(C(F)(F)F)cc3)c2F)CC1 [Example 287, 2-[4-[[[5-fluoro-6-[(3S)-3-[4-(trifluoromethyl)phenyl]morpholin-4-yl]pyrimidin-4-yl]amino]methyl]cyclohexyl] acetonitrile] | >50 % inhibition | >80 % inhibition | < 0.5 µM
CS(=O)(=O)N1CCC(F)(CNc2ncnc(N3CCOC[C@@H]3c3ccc(C(F)(F)F)cc3)c2F)CC1 [Example 266, 5-fluoro-N-[(4-fluoro-1-methylsulfonyl-4-piperidyl)methyl]-6-[(3S)-3-[4-(trifluoromethyl)phenyl]morpholin-4-yl]pyrimidin-4-amine] | >80 % inhibition | >80 % inhibition | < 0.5 µM
Cc1ccc(CNc2ncnc(N3CCCC3c3ccc(C(F)(F)F)cc3)c2F)o1 (stereo not shown) [Example 107, 5-fluoro-N-[(5-methyl-2-furyl)methyl]-6-[2-[4-(trifluoromethyl)phenyl]pyrrolidin-1-yl]pyrimidin-4-amine] | – | >0 % inhibition | < 10 µM
CCc1ccc(C2CCCN2c2ncnc(NCc3ccc(CC(N)=O)cc3)c2F)o1 (stereo not shown) [Example 316, 2-[4-[[[6-[2-(5-ethyl-2-furyl)pyrrolidin-1-yl]-5-fluoro-pyrimidin-4-yl]amino]methyl]phenyl]acetamide] | >20 % inhibition | >80 % inhibition | < 0.5 µM
Cc1ccc(CNc2nccc(N3CCCC3c3ccc(C(F)(F)F)cc3)c2F)cn1 (stereo not shown) [Example 66, 3-fluoro-N-[(6-methyl-3-pyridyl)methyl]-4-[2-[4-(trifluoromethyl)phenyl]pyrrolidin-1-yl]pyridin-2-amine] | – | >50 % inhibition | < 2 µM

Results, then the molecule that gave them:

Gal4 activity range @ 0.1 μM (% inhibition) [1] | Gal4 activity range @ 1 μM (% inhibition) [1] | IC50 [2] | SMILES
>50 % inhibition | >80 % inhibition | < 0.5 µM | NC(=O)Cc1ccc(CNc2ncnc(N3CCC[C@@H]3c3ccc(C(F)(F)F)cc3F)c2F)cc1 [Example 232, 2-[4-[[[5-fluoro-6-[(2R)-2-[2-fluoro-4-(trifluoromethyl)phenyl]pyrrolidin-1-yl]pyrimidin-4-yl]amino]methyl]phenyl]acetamide]
>20 % inhibition | >80 % inhibition | < 0.5 µM | O=S(=O)(NC1CC1)c1ccc(CNc2ncnc(N3CCOCC3c3ccccc3)c2F)cc1 (stereo not shown) [Example 273, N-cyclopropyl-4-[[[5-fluoro-6-(3-phenylmorpholin-4-yl)pyrimidin-4-yl]amino]methyl] benzenesulfonamide]
>50 % inhibition | >80 % inhibition | < 0.5 µM | Fc1c(NCC2CCOCC2)ncnc1N1CC(F)(F)CC1c1ccc(C(F)(F)F)cc1 (stereo not shown) [Example 259, 6-[4,4-difluoro-2-[4-(trifluoromethyl)phenyl]pyrrolidin-1-yl]-5-fluoro-N-(tetrahydropyran-4-ylmethyl)pyrimidin-4-amine]
>0 % inhibition | >20 % inhibition | < 0.5 µM | N#CNC(=O)Cc1ccc(CNc2ncnc(N3CCOCC3c3ccc(C(F)(F)F)cc3)c2F)cc1 (stereo not shown) [Example 292, N-cyano-2-[4-[[[5-fluoro-6-[3-[4-(trifluoromethyl)phenyl]morpholin-4-yl]pyrimidin-4-yl]amino]methyl]phenyl]acetamide]
>80 % inhibition | >80 % inhibition | < 0.5 µM | CC(C)c1ccc(C2CCCN2c2ncnc(NCc3ccc(CC(N)=O)cc3)c2F)cc1 (stereo not shown) [Example 303, 2-[4-[[[5-fluoro-6-[2-(4-isopropylphenyl)pyrrolidin-1-yl]pyrimidin-4-yl]amino]methyl]phenyl]acetamide]
>80 % inhibition | >80 % inhibition | < 0.5 µM | NC(=O)Cc1ccc(CN2CCc3c2ncnc3N2CCC[C@@H]2c2ccc(C(F)(F)F)cc2)cc1 [Example 265, 2-[4-[[4-[(2R)-2-[4-(trifluoromethyl)phenyl]pyrrolidin-1-yl]-5,6-dihydropyrrolo[2,3-d]pyrimidin-7-yl]methyl]phenyl]acetamide]
– | >50 % inhibition | < 1 µM | COc1ccc(Cn2ccc3c(N4CCCC4c4ccc(C(F)(F)F)cc4)ncnc32)cc1OC (stereo not shown) [Example 69, 7-[(3,4-dimethoxyphenyl)methyl]-4-[2-[4-(trifluoromethyl)phenyl]pyrrolidin-1-yl]pyrrolo[2,3-d]pyrimidine]
>80 % inhibition | >80 % inhibition | < 0.5 µM | CS(=O)(=O)N1CCC(CNc2ncnc(N3CCC[C@@H]3c3ccc(C(F)(F)F)cc3)c2F)CC1 [Example 197, 5-fluoro-N-[(1-methylsulfonyl-4-piperidyl)methyl]-6-[(2R)-2-[4-(trifluoromethyl)phenyl]pyrrolidin-1-yl]pyrimidin-4-amine]
>20 % inhibition | >50 % inhibition | < 1 µM | COc1ccc(CN(C)c2ncnc(N3CCCC3c3ccc(C(F)(F)F)cc3)c2F)cn1 (stereo not shown) [Example 116, 5-fluoro-N-[(6-methoxy-3-pyridyl)methyl]-N-methyl-6-[2-[4-(trifluoromethyl)phenyl]pyrrolidin-1-yl]pyrimidin-4-amine]
>0 % inhibition | >50 % inhibition | < 1 µM | O=S1(=O)CCC(O)(CNc2ncnc(N3CCOC[C@@H]3c3ccc(C(F)(F)F)cc3)c2F)CC1 [Example 234, 4-[[[5-fluoro-6-[(3S)-3-[4-(trifluoromethyl)phenyl]morpholin-4-yl]pyrimidin-4-yl]amino]methyl]-1,1-dioxo-thian-4-ol]
>20 % inhibition | – | < 2 µM | COc1ccnc(CNc2ncnc(N3CCCC3c3ccc(C(F)(F)F)cc3)c2F)c1 (stereo not shown) [Example 131, 5-fluoro-N-[(4-methoxy-2-pyridyl)methyl]-6-[2-[4-(trifluoromethyl)phenyl]pyrrolidin-1-yl]pyrimidin-4-amine]
>0 % inhibition | >50 % inhibition | < 2 µM | Fc1c(NCc2cccs2)ncnc1N1CCC[C@@H]1c1ccc(C(F)(F)F)cc1 [Example 203, 5-fluoro-N-(2-thienylmethyl)-6-[(2R)-2-[4-(trifluoromethyl)phenyl]pyrrolidin-1-yl]pyrimidin-4-amine]
>50 % inhibition | >80 % inhibition | < 0.5 µM | Fc1c(NCC2CCOCC2)ncnc1N1CCC[C@@H]1c1ccc(C(F)(F)F)cc1 [Example 208, 5-fluoro-N-(tetrahydropyran-4-ylmethyl)-6-[(2R)-2-[4-(trifluoromethyl)phenyl]pyrrolidin-1-yl]pyrimidin-4-amine]
